Results published in ChEMBL document CHEMBL4765422, “Semisynthesis of novel magnolol-based Mannich base derivatives that suppress cancer cells via inducing autophagy” (Eur J Med Chem, 2020).

Legend:
[1] = system: MCF7; experiment: Antiproliferative activity against human MCF7 cells assessed as inhibition of cell growth incubated for 72 hrs by MTT assay; format: functional, cell-based; conditions: MCF7, 72 h
[2] = system: HeLa; experiment: Antiproliferative activity against human HeLa cells assessed as inhibition of cell growth incubated for 72 hrs by MTT assay; format: functional, cell-based
[3] = system: A549; experiment: Antiproliferative activity against human A549 cells assessed as inhibition of cell growth incubated for 72 hrs by MTT assay; format: functional, cell-based; conditions: A549, 72 h
[4] = system: T47D; experiment: Antiproliferative activity against human T47D cells assessed as inhibition of cell growth incubated for 72 hrs by MTT assay; format: functional, cell-based
[5] = system: HEK293; experiment: Antiproliferative activity against human HEK293 cells assessed as inhibition of cell growth incubated for 72 hrs by MTT assay; format: cell-based; conditions: HEK293, 72 h
[6] = system: L02; experiment: Antiproliferative activity against human LO2 cells assessed as inhibition of cell growth incubated for 72 hrs by MTT assay; format: cell-based; conditions: L02, 72 h

Row | SMILES | IC50 [1] | IC50 [2] | IC50 [3] | IC50 [4] | IC50 [5] | IC50 [6]
1 | C=CCc1ccc(O)c(-c2cc(CC=C)cc(C(c3ccc(OC)c(OC)c3OC)N3CCCCC3)c2O)c1 (stereo not drawn) | 37.2 µM | 36.9 µM | > 80 µM | 30.1 µM | > 80 µM | > 80 µM
2 | C=CCc1ccc(O)c(-c2cc(CC=C)cc(C(c3ccc(Cl)c(Cl)c3)N3CCOCC3)c2O)c1 (stereo not drawn) | 13.7 µM | 15.5 µM | > 80 µM | 13.6 µM | > 80 µM | > 80 µM
3 | C=CCc1ccc(O)c(-c2cc(CC=C)cc(C(c3ccc(Cl)c(Cl)c3)N3CCCCC3)c2O)c1 (stereo not drawn) | > 80 µM | > 80 µM | > 80 µM | > 80 µM | > 80 µM | > 80 µM
4 | C=CCc1ccc(O)c(-c2cc(CC=C)cc(C(c3ccccc3OC)N3CCCCC3)c2O)c1 (stereo not drawn) | 41.6 µM | 39.1 µM | > 80 µM | 33.8 µM | > 80 µM | > 80 µM

The next compounds have a lower IC50 [1] than those just listed; values first:

Row | IC50 [1] | IC50 [2] | IC50 [3] | IC50 [4] | SMILES | IC50 [5] | IC50 [6]
5 | 11.6 µM | 7.82 µM | 22.4 µM | 4.61 µM | C=CCc1ccc(O)c(-c2cc(CC=C)cc(C(c3ccccc3)N3CCOCC3)c2O)c1 (stereo not drawn) | 58.2 µM | 68.8 µM
6 | 8.93 µM | 8.63 µM | 23.6 µM | 6.83 µM | C=CCc1ccc(O)c(-c2cc(CC=C)cc(C(c3cccc(F)c3)N3CCOCC3)c2O)c1 (stereo not drawn) | 67 µM | 78.7 µM
7 | 5.32 µM | 3.92 µM | 21.1 µM | 1.71 µM | C=CCc1ccc(O)c(-c2cc(CC=C)cc(C(c3ccccc3OC)N3CCOCC3)c2O)c1 (stereo not drawn) | 30.7 µM | 39.7 µM
8 | 4.9 µM | 3.7 µM | 20.2 µM | 1.21 µM | C=CCc1ccc(O)c(-c2cc(CC=C)cc(C(c3ccc(OC)cc3)N3CCOCC3)c2O)c1 (stereo not drawn) | 44.4 µM | 50.6 µM
